# Measurements: ChEMBL document CHEMBL3044894, “QSAR studies on a number of pyrrolidin-2-one antiarrhythmic arylpiperazinyls” (2012)
# System: Rattus norvegicus
# Test: Antiarrhythmic activity in anaesthetized rat assessed as inhibition of adrenaline-induced arrhythmia
# Assay type: functional, Heart
row,SMILES,pED50
1,CCOc1ccccc1N1CCN(CC(O)CN2CCC(c3ccccc3)(c3ccccc3)C2=O)CC1 (stereo not drawn),2.66
2,COc1ccccc1N1CCN(CC(O)CN2CCC(c3ccccc3)(c3ccccc3)C2=O)CC1 (stereo not drawn),2.37
3,O=C1N(CC(O)CN2CCN(c3ccccc3C(F)(F)F)CC2)CCC1(c1ccccc1)c1ccccc1 (stereo not drawn),2.13
4,Cc1ccccc1N1CCN(CC(O)CN2CCC(c3ccccc3)(c3ccccc3)C2=O)CC1 (stereo not drawn),2.53
5,O=C1N(CC(O)CN2CCN(c3ccccc3)CC2)CCC1(c1ccccc1)c1ccccc1 (stereo not drawn),2.38
6,COc1ccc(Cl)cc1N1CCN(CC(O)CN2CCCC2=O)CC1 (stereo not drawn),1.48
7,CCNC(=O)OC(CN1CCN(c2ccccc2OC)CC1)CN1CCCC1=O (stereo not drawn),1.92
8,COc1ccccc1N1CCN(CC(CN2CCCC2=O)OC(=O)NC(C)C)CC1 (stereo not drawn),2.19
9,CCCNC(=O)OC(CN1CCN(c2ccccc2OC)CC1)CN1CCCC1=O (stereo not drawn),1.52
10,CCCC(=O)OC(CN1CCN(c2ccccc2OC(C)C)CC1)CN1CCCC1=O (stereo not drawn),1.77
11,CC(C)NC(=O)OC(CN1CCN(c2ccccc2Cl)CC1)CN1CCCC1=O (stereo not drawn),2
12,CCNC(=O)OC(CN1CCN(c2ccccc2)CC1)CN1CCCC1=O (stereo not drawn),1.66
13,CC(C)C(=O)OC(CN1CCN(c2ccccc2)CC1)CN1CCCC1=O (stereo not drawn),1.88
14,O=C(NCc1ccccc1)OC(CN1CCN(c2ccccc2)CC1)CN1CCCC1=O (stereo not drawn),1.47
15,CCCNC(=O)OC(CN1CCN(c2ccccc2)CC1)CN1CCCC1=O (stereo not drawn),1.52
16,O=C1CCCN1CCCN1CCN(c2ccccc2O)CC1,1.36
17,O=C1CCCN1CCCN1CCN(c2ccccc2)CC1,2.01

row,SMILES,pED50
1,COc1ccccc1N1CCN(CCCN2CCCC2=O)CC1,1.79
2,O=C1CCCN1CCCN1CCN(c2ccccc2Cl)CC1,1.8
3,O=C1CCCN1CCCN1CCN(c2ccccc2F)CC1,1.54
4,CCOc1ccccc1N1CCN(CCCN2CCCC2=O)CC1,2.52
5,O=C1CCCN1CCCN1CCN(c2cccc(C(F)(F)F)c2)CC1,1.45
6,COc1ccccc1N1CCN(CC(O)CN2CCCC2=O)CC1 (stereo not drawn),1.43
7,O=C1CCCN1CC(O)CN1CCN(c2ccc(Cl)cc2)CC1 (stereo not drawn),1.4
8,O=C1CCCN1CC(O)CN1CCN(c2ccccc2F)CC1 (stereo not drawn),1.79
9,COc1cccc(N2CCN(CC(O)CN3CCCC3=O)CC2)c1 (stereo not drawn),1.64
10,CCOc1ccccc1N1CCN(CC(O)CN2CCCC2=O)CC1 (stereo not drawn),1.97
11,Cc1ccccc1N1CCN(CC(O)CN2CCCC2=O)CC1 (stereo not drawn),1.55
12,O=C1CCCN1CC(O)CN1CCN(c2ccccc2O)CC1 (stereo not drawn),2.23
13,CC(C)Oc1ccccc1N1CCN(CC(O)CN2CCCC2=O)CC1 (stereo not drawn),1.77
14,O=C1CCCN1CC(O)CN1CCN(c2ccccc2C(F)(F)F)CC1 (stereo not drawn),1.31
15,O=C1CCCN1CC(O)CN1CCN(c2ccc(F)cc2F)CC1 (stereo not drawn),1.54
16,O=C1CCCN1CC(O)CN1CCN(c2ccccc2)CC1 (stereo not drawn),1.6
